Where two headings read alike, the source gives them in different places.
Assays:
Format in all cases: in vivo
[1] = test system: Tetranychus urticae (Two-Spotted Spider Mite); experiment: whole plant or invertebrate; settings: foliar, 192 h
Protocol: Example B11: Tetranychus urticae (Two-Spotted Spider Mite): Feeding/Contact Activity
Bean leaf discs on agar in 24-well microtiter plates were sprayed with aqueous test solutions prepared from 10′000 ppm DMSO stock solutions. After drying the leaf discs were infested with a mite population of mixed ages. The samples were assessed for mortality on mixed population (mobile stages) 8 days after infestation.

[2] = test system: Euschistus heros (Neotropical Brown Stink Bug); experiment: Euschistus heros (Neotropical Brown Stink Bug), soybean leaves; settings: 120 h, read-out: effect in at least one of the two categories (mortality or growth inhibition); for percent effect (mortality or growth inhibition) at 200 ppm: application rate of 200 ppm, N2 nymphs on sprayed soybean leaves, 5 days after infestation
Protocol: Example B4: Euschistus heros (Neotropical Brown Stink Bug)
Soybean leaves on agar in 24-well microtiter plates were sprayed with aqueous test solutions prepared from 10′000 ppm DMSO stock solutions. After drying the leaves were infested with N2 nymphs. The samples were assessed for mortality and growth inhibition in comparison to untreated samples 5 days after infestation.

[3] = test system: Myzus persicae (Green Peach Aphid); experiment: Myzus persicae (Green Peach Aphid): feeding/contact activity, sunflower leaf discs; settings: foliar, 144 h
Protocol: Example B6: Myzus persicae (Green Peach Aphid): Feeding/Contact Activity
Sunflower leaf discs were placed onto agar in a 24-well microtiter plate and sprayed with aqueous test solutions prepared from 10′000 ppm DMSO stock solutions. After drying, the leaf discs were infested with an aphid population of mixed ages. The samples were assessed for mortality 6 days after infestation.

[4] = test system: Bemisia tabaci (Cotton White Fly); experiment: Bemisia tabaci (Cotton White Fly): feeding/contact activity, cotton leaf discs; settings: foliar, 144 h
Protocol: Example B1: Bemisia tabaci (Cotton White Fly): Feeding/Contact Activity
Cotton leaf discs were placed on agar in 24-well microtiter plates and sprayed with aqueous test solutions prepared from 10′000 ppm DMSO stock solutions. After drying the leaf discs were infested with adult white flies. The samples were checked for mortality 6 days after incubation.

[5] = test system: Myzus persicae (Green Peach Aphid); experiment: Myzus persicae (Green Peach Aphid): systemic activity, pea seedlings; settings: 144 h
Protocol: Example B7: Myzus persicae (Green Peach Aphid). Systemic Activity
Roots of pea seedlings infested with an aphid population of mixed ages were placed directly into aqueous test solutions prepared from 10′000 DMSO stock solutions. The samples were assessed for mortality 6 days after placing seedlings into test solutions.

[6] = test system: Myzus persicae (Green Peach Aphid); experiment: Myzus persicae (Green Peach Aphid): intrinsic activity, sucrose solution; settings: 120 h
Description: Example B8: Myzus persicae (Green Peach Aphid). Intrinsic Activity
Test compounds prepared from 10′000 ppm DMSO stock solutions were applied by pipette into 24-well microtiter plates and mixed with sucrose solution. The plates were closed with a stretched Parafilm. A plastic stencil with 24 holes was placed onto the plate and infested pea seedlings were placed directly on the Parafilm. The infested plate was closed with a gel blotting paper and another plastic stencil and then turned upside down. The samples were assessed for mortality 5 days after infestation.

[7] = application rate of 200 ppm, mixed population (mobile stages) on sprayed bean leaf discs, 8 days after infestation, read-out: mortality
[8] = application rate of 200 ppm, mixed ages on sprayed sunflower leaf discs, 6 days after infestation, read-out: mortality
[9] = application rate of 200 ppm, adult white flies on sprayed cotton leaf discs, 6 days after incubation, read-out: mortality
[10] = test rate of 24 ppm, systemic, roots of infested pea seedlings in test solution, 6 days, read-out: mortality
[11] = test rate of 12 ppm, intrinsic, mixed with sucrose solution under Parafilm, 5 days after infestation, read-out: mortality

C[C@@H](COc1cnc(Cl)c(C(=O)NC2(C#N)CC2)c1)N(CC#N)S(=O)(=O)C(F)(F)F [Compound P-8, 2-chloro-N-(1-cyanocyclopropyl)-5-[(2S)-2-[cyanomethyl(trifluoromethylsulfonyl)amino]propoxy]pyridine-3-carboxamide]
≥ 80%: mortality at 200 ppm [1, 7] | percent effect (mortality or growth inhibition) at 200 ppm [2] | mortality at 200 ppm [3, 8] | mortality at 200 ppm [4, 9] | mortality at 24 ppm [5, 10] | mortality at 12 ppm [6, 11]

C[C@@H](COc1cnc(Cl)c(C(=O)NC2CC2)c1)NS(=O)(=O)C(F)F [Compound P-10, 2-chloro-N-cyclopropyl-5-[(2S)-2-(difluoromethylsulfonylamino)propoxy]pyridine-3-carboxamide]
≥ 80%: mortality at 200 ppm [1, 7] | mortality at 24 ppm [5, 10] | mortality at 12 ppm [6, 11]

COCN([C@@H](C)COc1cnc(Cl)c(C(=O)N(C(C)=O)C2CC2)c1)S(=O)(=O)C(F)(F)F [Compound P-12, N-acetyl-2-chloro-N-cyclopropyl-5-[(2S)-2-[methoxymethyl(trifluoromethylsulfonyl)amino]propoxy]pyridine-3-carboxamide]
≥ 80%: mortality at 200 ppm [1, 7] | percent effect (mortality or growth inhibition) at 200 ppm [2] | mortality at 200 ppm [3, 8] | mortality at 200 ppm [4, 9] | mortality at 12 ppm [6, 11]

CC(C)C(=O)OCN([C@@H](C)COc1cnc(Cl)c(C(=O)NC2CC2)c1)S(=O)(=O)C(F)(F)F [Compound P-13, [[(1S)-2-[[6-chloro-5-(cyclopropylcarbamoyl)-3-pyridyl]oxy]-1-methyl-ethyl]-(trifluoromethylsulfonyl)amino]methyl 2-methylpropanoate]
≥ 80%: mortality at 200 ppm [1, 7] | mortality at 200 ppm [3, 8] | mortality at 200 ppm [4, 9] | mortality at 24 ppm [5, 10] | mortality at 12 ppm [6, 11]

COC(=O)N([C@@H](C)COc1cnc(Cl)c(C(=O)NC2CC2)c1)S(=O)(=O)C(F)(F)F [Compound P-14, methyl N-[(1S)-2-[[6-chloro-5-(cyclopropylcarbamoyl)-3-pyridyl]oxy]-1-methyl-ethyl]-N-(trifluoromethylsulfonyl)carbamate]
≥ 80%: mortality at 200 ppm [1] | percent control (mortality or growth inhibition) at 200 ppm [2] | mortality at 200 ppm [3] | mortality at 200 ppm [4] | mortality at 24 ppm [5] | mortality at 12 ppm [6]

C[C@@H](COc1cnc(Cl)c(C(=O)NC2CC2)c1)N(C)S(=O)(=O)C(F)(F)F [Compound P-16, 2-chloro-N-cyclopropyl-5-[(2S)-2-[methyl(trifluoromethylsulfonyl)amino]propoxy]pyridine-3-carboxamide]
≥ 80%: mortality at 200 ppm [1, 7] | percent effect (mortality or growth inhibition) at 200 ppm [2] | mortality at 200 ppm [3, 8] | mortality at 24 ppm [5, 10] | mortality at 12 ppm [6, 11]

O=C(NC1CC1)c1cc(OCCNS(=O)(=O)C(F)(F)F)cnc1Cl [Compound P-17, 2-chloro-N-cyclopropyl-5-[2-(trifluoromethylsulfonylamino)ethoxy]pyridine-3-carboxamide]
≥ 80%: mortality at 200 ppm [3, 8] | mortality at 200 ppm [4, 9] | mortality at 12 ppm [6, 11]

Cc1cc(Cl)cnc1NC(=O)c1cc(OC[C@H](C)NS(=O)(=O)C(F)(F)F)cnc1Cl [Compound P-20, 2-chloro-N-(5-chloro-3-methyl-2-pyridyl)-5-[(2S)-2-(trifluoromethylsulfonylamino)propoxy]pyridine-3-carboxamide]
≥ 80%: mortality at 200 ppm [1, 7] | mortality at 200 ppm [4, 9] | mortality at 12 ppm [6, 11]

Cc1ncc(OC[C@H](C)NS(=O)(=O)C(F)(F)F)cc1C(=O)NC12CC(C1)C2 [Compound P-26, N-(1-bicyclo[1.1.1]pentanyl)-2-methyl-5-[(2S)-2-(trifluoromethylsulfonylamino)propoxy]pyridine-3-carboxamide]
≥ 80%: mortality at 200 ppm [1, 7] | mortality at 200 ppm [3, 8] | mortality at 24 ppm [5, 10] | mortality at 12 ppm [6, 11]

Cc1ncc(OC[C@H](C)NS(=O)(=O)C(F)(F)F)cc1C(=O)NCc1ccc(Cl)cn1 [Compound P-28, N-[(5-chloro-2-pyridyl)methyl]-2-methyl-5-[(2S)-2-(trifluoromethylsulfonylamino)propoxy]pyridine-3-carboxamide]
≥ 80%: mortality at 200 ppm [4, 9] | mortality at 24 ppm [5, 10]

CCNC(=O)c1cc(OC[C@H](C)NS(=O)(=O)C(F)(F)F)cnc1Cl [Compound P-50, 2-chloro-N-ethyl-5-[(2S)-2-(trifluoromethylsulfonylamino)propoxy]pyridine-3-carboxamide]
≥ 80%: percent effect (mortality or growth inhibition) at 200 ppm [2] | mortality at 200 ppm [3, 8] | mortality at 12 ppm [6, 11]

C[C@@H](COc1cnc(Cl)c(C(=O)NC2CON(CC(F)(F)F)C2=O)c1)NS(=O)(=O)C(F)(F)F (stereo partly drawn) [Compound P-54, 2-chloro-N-[3-oxo-2-(2,2,2-trifluoroethyl)isoxazolidin-4-yl]-5-[(2S)-2-(trifluoromethylsulfonylamino)propoxy]pyridine-3-carboxamide]
≥ 80%: mortality at 200 ppm [3, 8] | mortality at 200 ppm [4, 9] | mortality at 24 ppm [5, 10] | mortality at 12 ppm [6, 11]

C[C@@H](COc1cnc(Cl)c(C(=O)NC(C)(C)C#N)c1)NS(=O)(=O)C(F)(F)F [Compound P-57, 2-chloro-N-(1-cyano-1-methyl-ethyl)-5-[(2S)-2-(trifluoromethylsulfonylamino)propoxy]pyridine-3-carboxamide]
≥ 80%: mortality at 200 ppm [1, 7] | mortality at 200 ppm [3, 8] | mortality at 200 ppm [4, 9] | mortality at 24 ppm [5, 10] | mortality at 12 ppm [6, 11]

C[C@@H](COc1cnc(Cl)c(C(=O)N(C)C2CC2)c1)NS(=O)(=O)C(F)(F)F [Compound P-58, 2-chloro-N-cyclopropyl-N-methyl-5-[(2S)-2-(trifluoromethylsulfonylamino)propoxy]pyridine-3-carboxamide]
≥ 80%: percent effect (mortality or growth inhibition) at 200 ppm [2] | mortality at 200 ppm [3, 8] | mortality at 200 ppm [4, 9] | mortality at 24 ppm [5, 10] | mortality at 12 ppm [6, 11]

COCN([C@@H](C)COc1cnc(C)c(C(=O)NC2CC2)c1)S(=O)(=O)C(F)(F)F [Compound P-61, N-cyclopropyl-5-[(2S)-2-[methoxymethyl (trifluoromethylsulfonyl)amino]propoxy]-2-methyl-pyridine-3-carboxamide]
≥ 80%: percent effect (mortality or growth inhibition) at 200 ppm [2]

Cc1cnc(OC[C@H](C)NS(=O)(=O)C(F)(F)F)cc1C(=O)NC12CC(C1)C2 [Compound P-66, N-(1-bicyclo[1.1.1]pentanyl)-5-methyl-2-[(2S)-2-(trifluoromethylsulfonylamino)propoxy]pyridine-4-carboxamide]
≥ 80%: percent effect (mortality or growth inhibition) at 200 ppm [2]

Cc1cnc(OC[C@H](C)NS(=O)(=O)C(F)(F)F)cc1C(=O)NCCOc1ccccc1F [Compound P-71, N-[2-(2-fluorophenoxy)ethyl]-5-methyl-2-[(2S)-2-(trifluoromethylsulfonylamino)propoxy]pyridine-4-carboxamide]
≥ 80%: percent effect (mortality or growth inhibition) at 200 ppm [2]

C[C@@H](COc1cc(C(=O)NC2CC2)c(Br)cn1)NS(=O)(=O)C(F)(F)F [Compound P-83, 5-bromo-N-cyclopropyl-2-[(2S)-2-(trifluoromethylsulfonylamino)propoxy]pyridine-4-carboxamide]
≥ 80%: mortality at 200 ppm [3, 8] | mortality at 24 ppm [5, 10] | mortality at 12 ppm [6, 11]

Source: patent publication US20260015325A1, “ALKOXY HETEROARYL- CARBOXAMIDE OR THIOAMIDE COMPOUNDS” (SYNGENTA CROP PROTECTION AG, priority 2022, published 2026)
